Assay results: US11432547B2, “Inhibitors of GRB2-associated binding protein 1 (GAB1) and methods of treating cancer using the same” (Arizona Board of Regents on Behalf of the University of …, priority 2014, dated 2022)
“And” between values parts separate entries of the source, which are not always exact repeats. Equal values may be shown once. Read-outs that look alike come from different tables or passages of the source.

What was measured:
[1] = molecular target: T1, GAB1 PH domain (Homo sapiens, UniProt Q13480); assay: SPR binding assay, GAB1 PH domain; conditions: for Exp. ΔGbind: GAB1, derived from experimental KD or Ki, RT ln(KD)
T1 sequence (Q13480 5-116 limits assumed): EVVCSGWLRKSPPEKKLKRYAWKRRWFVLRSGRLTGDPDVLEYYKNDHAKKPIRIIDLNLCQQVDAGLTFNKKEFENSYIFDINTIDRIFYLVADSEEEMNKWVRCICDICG

[2] = test system: GAB1 Y627 phosphorylation; assay: Inhibition of GAB1 Y627 phosphorylation in T47D cells; assay type: cell-based; conditions: Homo sapiens, Y627, 20 μM compound 4 hr, HGF stimulated, read-out: % pGAB1 inhibition
Method: For all biological assays, hit compounds were added at 20 μM concentration directly into the culture media of the cells for 4 hr following a 16 hr incubation of T47D cells without FBS. Cells were stimulated with HGF for 20 min at 50 ng/ml. Following this treatment, cells were lysed and equal amounts of total cell lysate were loaded on a pSer^312-IRS-1/Total IRS-1 Meso Scale Discovery plate as described by the manufacturer. The plate was read using a Sector™Imager 2400A instrument (Meso Scale Discovery protein profiling system, Gaithersburg, Md.). For the measurement of GAB1 phosphorylation, T47D cells were treated as for the phosphorylation of IRS1 evaluation. […] Each experiment was performed at least three times.

[3] = test system: T47D breast cancer cell line; assay: Cellular proliferation assay (MTT), T47D; assay type: cell-based, human; conditions: for IC50: Homo sapiens, T47D, 96 h, 4 days growth, MTT, IA: Inactive
Method: (§1) Two human breast cancer Cell lines and one normal breast cell line were used for this study: T47D ductal missing highlighted section in original pg. 26Type Culture Collection, Rockville, Md.). T47D and MDA-MB-231 cells were maintained in bulk culture in Dulbecco's modified Eagle medium (DMEM) supplemented with 10% heat-inactivated fetal bovine serum (FBS), 4.5 g/L glucose, 100 U/mL penicillin and […] streptomycin in a 5% CO2 atmosphere. MCF-10A cells were maintained in MEGM with other conditions same as the cancer cell lines. […] Cells were confirmed to be mycoplasma free by testing them with an ELISA kit (Roche-Boehringer Mannheim, Indianapolis, Ind.). The hit compounds were freshly prepared in DMSO at a stock concentration of 10 mM. For the evaluation of cellular proliferation, a standard 96-well micro-cytotoxicity assay was performed as described in reference. Briefly, the assay was set up by plating cells at 5,000-10,000 cells per well (depending on cell doubling time) for a growth period of 4 days. The identified hits were added directly to the media, dissolved in DMSO at various concentrations ranging from 1 to 200 μM. The endpoint was spectrophotometric determination of the reduction of 3-(4,5-dimethylthiazol-2-yl)-2,5-diphenyltetrazolium bromide. All assays were performed in triplicates.

[4] = test system: MDA-MB-231 breast cancer cell line; assay: Cellular proliferation assay (MTT), MDA-MB-231; assay type: cell-based, human; conditions: for IC50: Homo sapiens, MDA-MB-231, 96 h, 4 days growth, MTT, IA: Inactive
Method: as §1

[5] = test system: MCF-10A breast epithelial cell line; assay: Cellular proliferation assay, MCF-10A; assay type: cell-based, human; conditions: data not shown
Method: Two human breast cancer Cell lines and one normal breast cell line were used for this study: T47D ductal missing highlighted section in original pg. 26Type Culture Collection, Rockville, Md.). T47D and MDA-MB-231 cells were maintained in bulk culture in Dulbecco's modified Eagle medium (DMEM) supplemented with 10% heat-inactivated fetal bovine serum (FBS), 4.5 g/L glucose, 100 U/mL penicillin and […] streptomycin in a 5% CO2 atmosphere. MCF-10A cells were maintained in MEGM with other conditions same as the cancer cell lines. Cells were passaged using 0.25% trypsin and 0.02% EDTA. Cells were confirmed to be mycoplasma free by testing them with an ELISA kit (Roche-Boehringer Mannheim, Indianapolis, Ind.). The hit compounds were freshly prepared in DMSO at a stock concentration of 10 mM. For the evaluation of cellular proliferation, a standard 96-well micro-cytotoxicity assay was performed as described in reference. Briefly, the assay was set up by plating cells at 5,000-10,000 cells per well (depending on cell doubling time) for a growth period of 4 days. The identified hits were added directly to the media, dissolved in DMSO at various concentrations ranging from 1 to 200 μM. The endpoint was spectrophotometric determination of the reduction of 3-(4,5-dimethylthiazol-2-yl)-2,5-diphenyltetrazolium bromide. All assays were performed in triplicates.

[6] = molecular target: T2, IRS1 PH domain (Homo sapiens, UniProt P35568); assay: SPR binding assay, IRS1 PH domain (selectivity); conditions: derived from experimental KD, RT ln(KD)
T2 sequence (P35568 12-115 limits assumed): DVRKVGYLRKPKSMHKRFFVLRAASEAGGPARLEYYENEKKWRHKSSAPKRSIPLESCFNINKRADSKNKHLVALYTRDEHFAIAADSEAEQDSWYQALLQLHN
Method: The DNA sequences of human GAB1 and IRS1 PH domain (IRS1 is for selectivity evaluation) were cloned into pGEX-4T1 inducible bacterial expression plasmid (GeneStorm, Invitrogen, Carlsbad, Calif.) transformed into BL21 (DE3) E. Coli. Expression and purification of the recombinant proteins were performed. Binding assays were performed using a Biacore 2000 instrument with the Biacore Control Software v3.2 and BIAevaluation v4.1 analysis software (Biacore, Piscataway, N.J.). Briefly, the PH domain GST-fusion proteins were immobilized on a CMS Sensorchip (Biacore BR-1000-12) using Biacore's Amine Coupling Kit (Biacore BR-1000-50) to a level of 10,000 Response units (RUs). Small molecule analytes at concentrations ranging from one tenth to ten times the predicted KD were injected at a high flow rate (30 μL/min). Dimethylsulfoxide (DMSO) concentrations in all samples and running buffer were 1% (v/v) or less. […] The inventors did triplicate SPR assays for each concentration.

[7] = molecular target: GAB2 PH domain (Homo sapiens, UniProt Q9UQC2); assay: Follow-up experiments, GAB2 PH domain; assay type: binding
[8] = test system: MDA-MB-468 cell line; assay: Cellular proliferation assay, MDA-MB-468; assay type: cell-based; conditions: Homo sapiens, printed in MDA-MB-231 column with ** footnote, read-out: IC50 (μM), MDA-MB-468 cell line used
[9] = competitive binding vs PtdIns(3,4,5)P3 liposomes, values with asterisk, read-out: Kn or Ki (μM) GAB1, *Ki measurement

Sequence of GAB2 PH domain (Q9UQC2 6-117 limits assumed): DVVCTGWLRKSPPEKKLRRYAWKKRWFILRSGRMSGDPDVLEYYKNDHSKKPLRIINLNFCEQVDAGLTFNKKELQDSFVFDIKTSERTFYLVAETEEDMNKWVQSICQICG

SMILES | IC50 [3] [µM] | inhibition at 20 µM [2] [%] | IC50 [4] [µM] | other results
CCCCCCCCCCCCc1ccc(S(=O)(=O)Nc2nnc(CC(=O)O)s2)cc1 [GAB-015] | 125 ± 5.4 | – | – | Ki [1, 9]: 13.1 ± 1.5 µM; inhibition at 20 µM ([2]; T47D, 4 h): 77%
Cc1noc(C)c1NC(=O)NCc1csc(-c2cccs2)n1 [GAB-009] | 97.6 ± 6.1 | 38 | 163 ± 6 | –
O=C(O)c1ccccc1C(=O)Nc1ccccc1SCCS(=O)(=O)c1ccc(Cl)cc1 [GAB-012] | 119 ± 3.6 | 43 | > 200 | killing of MDA-MB-231 at 50 μM [4]: did not effectively kill; killing of T47D at 50 μM [3]: did not effectively kill; toxicity to MCF-10A at 100 μM [5]: toxic
COc1cc(NS(=O)(=O)c2ccc(NS(=O)(=O)c3c(C)noc3C)cc2)nc(OC)n1 [GAB-013] | > 200 | 27 | > 200 | killing of MDA-MB-231 at 50 μM [4]: did not effectively kill; killing of T47D at 50 μM [3]: did not effectively kill; toxicity to MCF-10A at 100 μM [5]: toxic
CS(=O)(=NS(=O)(=O)c1ccc(-c2ccccn2)s1)c1ccc(Cl)cc1 (stereo not drawn) [GAB-005] | > 200 | 6 | > 200 | –
O=S(=O)(NCc1csc(-c2cccs2)n1)c1ccc(N2CCOCC2)nc1 [GAB-008] | 43.2 ± 3.2 | 8 | > 200 | –
CCc1ccc(C(=O)OC)cc1CSc1nnc(-c2ccc(C(F)(F)F)cc2)n1Cc1ccoc1 [GAB-019] | 39.4 ± 6.2 | 91 | – | –
Cc1nc(-c2cnc(S(=O)(=O)N3CCN(C4c5ccccc5-c5ccccc54)CC3)s2)cs1 [GAB-003] | 13.9 ± 0.6 | 14 | 85.2 ± 7.2 | –
CCCCCCCCCCCCc1ccc(S(=O)(=O)Nc2nnc(S(N)(=O)=O)s2)cc1 [GAB-018] | 185 ± 2.5 | – | – | Ki [1, 9]: 36.6 ± 5 µM; inhibition at 20 µM ([2]; T47D, 4 h): 71%; killing of MDA-MB-231 at 50 μM [4]: did not effectively kill; killing of T47D at 50 μM [3]: did not effectively kill
Cc1onc(-c2ccccc2)c1-c1nc(CSc2nc3ccccc3[nH]2)no1 [GAB-010] | 23.8 ± 4.2 | 92 | 66 ± 4.4 | Exp. ΔGbind [6]: -9.51 kcal/mol
CCCCCCCCCCCCc1ccc(S(=O)(=O)Nc2nncs2)cc1 [GAB-020] | – | 87 | – | –
Cn1c(Cc2ccsc2)nnc1SCC(=O)Nc1cc(Cl)cc(Cl)c1 [GAB-011] | > 200 | 24 | > 200 | –
CCCCCCCCCCCCCCCCCCOC[C@H](COP(=O)(O)OC1C(O)[C@@H](O)C(O)C[C@H]1O)OC (stereo partly drawn) [DPIEL, reference compound] | – | 72 | – | –
CS(=O)(=O)CCSc1ncccc1C(=O)Sc1ccc(Cl)cc1Cl [GAB-007] | 20.1 ± 4.3 | 53 | 4.6 ± 0.7 | Exp. ΔGbind [1]: -6.01 kcal/mol; Ki ([1]; SPR direct binding, values without asterisk, NB: No Binding, read-out: Kn or Ki (μM) GAB1): 42.3 ± 8.9 µM; Exp. ΔGbind [6]: -7.93 kcal/mol
CCCCCCCCCCCCc1ccc(S(=O)(=O)Nc2nnc(C(=O)OCC)s2)cc1 [GAB-017] | – | – | – | Exp. ΔGbind [1]: -8.47 kcal/mol; inhibition at 20 µM ([2]; T47D, 4 h): > 80%
O=c1[nH]nc(SCc2csc(-c3ccccc3)n2)n1Cc1ccco1 [GAB-004] | 19.4 ± 2.9 | 81 | 66.6 ± 4.6 | Exp. ΔGbind [1]: -7.78 kcal/mol
CCCCCCCCCCCCc1ccc(S(=O)(=O)Nc2nnc(CC(=O)OCC)s2)cc1 [GAB-016] | – | – | – | Exp. ΔGbind [1]: -8.31 kcal/mol; inhibition at 20 µM ([2]; T47D, 4 h): > 80%; targeting of GAB2 PH domain [7]: targets GAB2 PH domain; Exp. ΔGbind [6]: -9.38 kcal/mol
Cc1nnc(NS(=O)(=O)c2ccc(NS(=O)(=O)c3ccc4ccccc4c3)cc2)s1 [GAB-014] | 178 ± 3.9 | 42 | – | IC50 [8]: 69.9 ± 0.1 µM
O=S(=O)(NCc1csc2ccc(Cl)cc12)c1cc(S(=O)(=O)c2ccccc2)cs1 [GAB-001] | 23.7 ± 2.7 | 55 | 40.3 ± 1.3 | Exp. ΔGbind [1]: -6.91 kcal/mol; Ki [1, 9]: 9.4 µM and 9.38 µM
Cn1cnc(S(=O)(=O)Nc2ccccc2SCCS(=O)(=O)c2ccc(Cl)cc2)c1 [GAB-002] | 138 ± 6.9 | 32 | 143 ± 11.6 | –
Cc1cc2ncc(-c3cnc(SCCS(=O)(=O)c4ccc(Cl)cc4)nc3)c(C)n2n1 [GAB-006] | 101 ± 1.8 | 16 | – | –
